According to ChEMBL document CHEMBL3137667, “[Drug-induced liver injury; fourteenth updated edition of the bibliographic database of liver injuries and related drugs]” (Gastroenterol Clin Biol, 2004):

Tests used:
[1] = human, serum
[2] = human
[3] = Times to onset, minimal and maximal, observed in the indexed observations. [column 'DELAI' in source]; details: human
[4] = human; remark: listed apart in the source
[5] = human; remark: listed apart in the source
[6] = Highest frequency of acute liver toxicity observed during clinical trials, expressed as a percentage. [column '% AIGUE' in source]; details: human
[7] = human, serum; remark: listed apart in the source
[8] = Presence of at least one case with successful reintroduction. [column 'REINT' in source]; details: human
[9] = Highest frequency of moderate liver toxicity observed during clinical trials, expressed as a percentage. [column '% BIOL' in source]; details: human
[10] = human, serum, 4383 h
[11] = human; remark: listed apart in the source
[12] = human; remark: listed apart in the source
[13] = human; remark: listed apart in the source
[14] = human; remark: listed apart in the source
[15] = human; remark: listed apart in the source
[16] = human; remark: listed apart in the source
[17] = human; remark: listed apart in the source
[18] = Proposed mechanism(s) of liver damage. [column 'MEC' in source]; details: human
[19] = Comments (NB not yet translated). [column 'COMMENTAIRES' in source]; details: human
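For Hepatotoxicity (association with vascular disease) in this document: count of indexed literature references reporting vascular liver injury in humans, e.g. peliosis hepatitis, hepatic veno-occlusive disease or Budd-Chiari syndrome.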
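For Hepatotoxicity (benign tumour) in this document: value is a count of indexed literature references citing a benign tumour confirmed by histopathology.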
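For Hepatotoxicity (choleostasis) in this document: human cholestatic liver injury, shown by histopathology or by peak ALT or AST elevation over alkaline phosphatase ratio below 2, value counts indexed literature reports.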
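For Hepatotoxicity (chronic liver disease) in this document: chronic liver injury confirmed by histopathology or persistently raised serum aminotransferase activity beyond 6 months, value given as the count of indexed literature references.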
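For Hepatotoxicity (cirrhosis) in this document: value is a count of indexed literature references reporting cirrhosis confirmed by histopathology.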
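For Hepatotoxicity (cytolytic) in this document: human cytolytic liver injury, shown by histopathology or by a ratio above 5 of peak ALT or AST elevation to alkaline phosphatase elevation, value counts indexed references.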
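For Hepatotoxicity (granulomatous hepatitis) in this document: value is a count of indexed literature references reporting granulomatous liver disease confirmed by histopathology.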
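For Hepatotoxicity (malignant tumour) in this document: malignant tumour confirmed by histopathology, value gives the count of indexed literature references reporting it.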
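For Hepatotoxicity (severe hepatitis) in this document: human clinical data: severe hepatitis, meaning potentially life-threatening liver failure or clinically observed cases, the value counts how many indexed literature references report it.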
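For Hepatotoxicity (steatosis) in this document: steatosis confirmed by histopathology, value is the count of indexed references.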

| Compound | Hepatotoxicity (moderate) [1] | Hepatotoxicity (benign tumour) [2] | Hepatotoxicity (time to onset) [3] | Hepatotoxicity (association with vascular disease) [4] | Hepatotoxicity (animal toxicity known) [5] | Hepatotoxicity (acute) [6] | Hepatotoxicity (acute) [7] | Hepatotoxicity (successful reintroduction) [8] | Hepatotoxicity (moderate) [9] | Hepatotoxicity (chronic liver disease) [10] | Hepatotoxicity (malignant tumour) [11] | Hepatotoxicity (choleostasis) [12] | Hepatotoxicity (cytolytic) [13] | Hepatotoxicity (cirrhosis) [14] | Hepatotoxicity (steatosis) [15] | Hepatotoxicity (granulomatous hepatitis) [16] | Hepatotoxicity (severe hepatitis) [17] | Hepatotoxicity (mechanism) [18] | Hepatotoxicity (comment) [19] | other results |
| --- | --- | --- | --- | --- | --- | --- | --- | --- | --- | --- | --- | --- | --- | --- | --- | --- | --- | --- | --- | --- |
| COC1=CC(=O)C[C@@H](C)[C@]12Oc1c(Cl)c(OC)cc(OC)c1C2=O [GRISEOFULVIN] | 9 | 0 | 3 days - 4.5 months | 0 | yes | 2.8% | 5 | yes | 50% | 0 | 0 | 2 | 1 | 0 | 0 | 0 | 0 | – | – | – |
| COc1ccc2c(c1)c(CC(=O)O)c(C)n2C(=O)c1ccc(Cl)cc1 [INDOMETHACIN] | 7 | 0 | 3 days - 10 years | 0 | yes | 1% | 17 | yes | 25% | 0 | 0 | 10 | 8 | 0 | 0 | 0 | 5 | Allergic, Reactive metabolite | – | – |
| N[C@@H]1C[C@H]1c1ccccc1.N[C@H]1C[C@@H]1c1ccccc1 [TRANYLCYPROMINE] | 0 | 0 | – | 0 | yes | – | 2 | yes | – | 0 | 0 | – | – | 0 | 0 | – | – | – | – | Hepatotoxicity (acute) ([6]; Liver): 0%; Hepatotoxicity (moderate) ([9]; Liver): 0%; Hepatotoxicity (choleostasis) ([12]; Liver): 2; Hepatotoxicity (cytolytic) ([13]; Liver): 2; Hepatotoxicity (granulomatous hepatitis) ([16]; Liver): 0; Hepatotoxicity (severe hepatitis) ([17]; Liver): 0 |
| C=COCC(F)(F)F [FLUROXENE] | 2 | 0 | 1 day - 5 days | 0 | yes | 0% | 4 | – | 30.4% | 0 | 0 | 0 | 3 | 0 | 0 | 0 | 2 | Toxic Metabolite | I/PHENOBARBITAL/PHENYTOINE | – |
| CC(=O)[C@@]1(O)CC[C@H]2[C@@H]3C=C(Cl)C4=CC(=O)[C@@H]5C[C@@H]5[C@]4(C)[C@H]3CC[C@@]21C [CYPROTERONE] | 4 | 1 | 4 days - 10 years | 0 | yes | 13% | 21 | – | 20% | 1 | 5 | 3 | 20 | 1 | 0 | 0 | 13 | Dose-dependant | AC_ANTI-N/pCN | – |
| CC(=O)N[C@H]1[C@@H](O[C@H]2[C@H](O)[C@@H](O)[C@H](O[C@H]3[C@H](CS(=O)(=O)O)[C@@H](OS(=O)(=O)O)[C@@H](O[C@H]4[C@H](O)[C@@H](OS(=O)(=O)O)C(O)O[C@H]4C(=O)O)O[C@@H]3O)O[C@@H]2C(=O)O)O[C@H](COS(=O)(=O)O)[C@@H](O)[C@@H]1O (stereo partly specified) [SODIUM HEPARIN] | 20 | 0 | 2 days - 2 weeks | 0 | yes | 0% | 4 | – | 90% | 0 | 0 | 1 | 3 | 0 | 0 | 0 | 1 | Dose-dependant | RUPTURE_HEPATIQUE | – |
| N=C(N)c1ccc(OCCCCCOc2ccc(C(=N)N)cc2)cc1 [PENTAMIDINE] | 17 | 0 | 1 week - 3 months | 0 | yes | 0% | 4 | yes | 43.5% | 0 | 0 | 0 | 4 | 0 | 1 | 0 | 2 | – | – | – |
| O=C1c2cccc(O)c2C(=O)c2c(O)cccc21 [DANTHRON] | 1 | 0 | 2 days - 1 year | 0 | yes | 0% | 0 | yes | 0% | 1 | 0 | 0 | 0 | 0 | 0 | 0 | 0 | – | – | – |
| C[C@H]1O[C@H](O[C@H]2[C@H](O)[C@@H](O)[C@@H](O[C@H]3[C@H](O)[C@@H](O)C(O)O[C@@H]3CO)O[C@@H]2CO)[C@H](O)[C@@H](O)[C@@H]1N[C@H]1C=C(CO)[C@@H](O)[C@H](O)[C@H]1O (stereo partly specified) [ACARBOSE] | 6 | 0 | 1 week - 1.5 years | 0 | yes | 0% | 7 | yes | 9.9% | 0 | 0 | 0 | 6 | 0 | 0 | 0 | 0 | – | – | – |
